Broadly, the melting point is the temperature, or range, at which the solid turns liquid.

Data set [1] concerns the target T1, Brd4 bromodomain 1 (BRD4(1)) (Homo sapiens, UniProt O60885).
T1 construct: Illustrative results with the first bromodomain of Brd4; made in house; host or cells: E. coli BL21 (DE3)
The data set can be described thus: Inhibition of tetra-acetylated histone H4 binding to Brd4 bromodomain 1 (TR-FRET). On the set-up: key: Active: Compounds with an IC50 value less than 30 μM were deemed to be active.; Not Active: Compounds with an IC50 value less than 30 μM were deemed to be active. Particulars: tetra-acetylated histone H4 peptide, active = IC50 <30 μM. The essentials:
(§1)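 IC50 values come from dose-response curves of the 665 nm to 620 nm TR-FRET signal decrease, measured after 2 h at room temperature. Reactions contained 200 nM E. coli-expressed His-tagged bromodomain, 25-50 nM biotinylated tetra-acetylated H4 peptide, Eu-streptavidin plus XL665 anti-His antibody, with 30 mM HEPES pH 7.4, 320 mM KF and 0.2% DMSO.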
A general note: Time-resolved FRET reads energy transfer from a long-lived donor to a nearby acceptor.

In data set [2] the target is T2, second bromodomain of Brd2 (BRD2(2)) (Homo sapiens, UniProt P25440).
T2 construct: made in house; host or cells: E. coli BL21 (DE3)
T2 sequence (P25440 344-453 limits assumed): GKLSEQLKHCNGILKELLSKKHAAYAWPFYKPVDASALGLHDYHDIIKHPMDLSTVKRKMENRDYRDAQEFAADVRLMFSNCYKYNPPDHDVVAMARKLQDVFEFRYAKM
The data set can be described thus: Inhibition of tetra-acetylated histone H4 binding to Brd2 bromodomain 2 (TR-FRET). On the set-up: key: Active: Compounds with an IC50 value less than 30 μM were deemed to be active.; Not Active: Compounds with an IC50 value less than 30 μM were deemed to be active. Conditions: tetra-acetylated histone H4 peptide, active = IC50 <30 μM. The essentials: as §1

The test system of a further data set is c-myc. The data set can be described thus: Inhibition of c-myc expression in MV4-11 cells (mRNA, real-time PCR). Format: cell-based. On the set-up: key: Active: Compounds with an IC50 value less than 30 μM were deemed to be active.; Not Active: Compounds with an IC50 value less than 30 μM were deemed to be active. Conditions: Human AML MV4-11 cells, 3 h incubation. The essentials: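 Duplex RT-qPCR of c-myc against cyclophilin cDNA gave IC50 from a dose–response curve. Input was isolated mRNA from 2.5×10^4 MV4-11 cells after 3 h exposure at 37 °C to compound or 0.1% DMSO vehicle.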

Data set [3] has as its system human AML MV-4-11 (CRL-9591) cells. The data set is described as follows: Inhibition of cell proliferation in MV4-11 cells. Format: cell-based. On the set-up: key: Active: Compounds with an IC50 value less than 30 μM were deemed to be active.; Not Active: Compounds with an IC50 value less than 30 μM were deemed to be active. Particulars: human AML MV-4-11 cells, 72 h; active = IC50 <30 μM. The essentials:
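IC50 values come from blank-corrected proliferation relative to DMSO controls, read as 490 nm absorbance 3–4 h after CellTiter Aqueous One addition. Before that, cells seeded at 5×10^4/well were exposed for 72 h (37° C, 5% CO2) to triplicate two-fold compound dilutions spanning 30–0.2 μM.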

The test system of a further data set is hIL-6 mRNA. The data set is described as follows: Inhibition of hIL-6 mRNA transcription in U937 cells. It is filed as cell-based, human. On the set-up: key: Active: Compounds with an IC50 value less than 30 μM were deemed to be active.; Not Active: Compounds with an IC50 value less than 30 μM were deemed to be active. Particulars: LPS stimulation, active = IC50 <30 μM. The method in brief: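 Readout is one-step real-time PCR of hIL-6 mRNA, normalized to an internal control and given as fold induction versus control. Cells: PMA (60 ng/mL, 3 days)-differentiated U937 macrophages, compound added 1 h before 1 ug/mL LPS, harvested after 3 h at 37° C.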

A further data set concerns ApoA-I mRNA. The data set can be described thus: Up-regulation of hApoA-1 mRNA transcription in Huh7 cells. Format: cell-based, human. On the set-up: key: Active: Compounds with an EC170 value less than 30 μM were deemed to be active. Particulars: 48 h treatment, ApoA-I mRNA by real-time PCR, Active = EC170 less than 30 μM. The essentials:
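Huh7 cells treated with compound for 48 h. ApoA-I mRNA was then quantified in captured mRNA by one-step real-time RT-PCR. Fold induction calculated from Ct values relative to the matching DMSO control; EC170 is the concentration for 170% of control expression.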
For orientation: Real-time PCR tracks product formation cycle by cycle.

With `Cc1noc(C)c1-c1ccc(=O)n(Cc2ccc(F)c(Cl)c2)c1` [Example 147, 1-(3-Chloro-4-fluorobenzyl)-5-(3,5-dimethylisoxazol-4-yl)pyridin-2(1H)-one], in data set [1], the “FRET activity (IC50 <30 μM) BRD4(1)” value is listed as “Active”. Moreover, the “FRET activity (IC50 <30 μM) BRD2(2)” value in data set [2] is “Active”. The “c-myc activity (IC50 <30 μM)” value with c-myc is “Active”. Moreover, the “Cell Proliferation activity (IC50 <30 μM)” value (“Cell Proliferation activity” below) in data set [3] was “Active”. The “IL-6 activity (IC50 <30 μM)” value in the data set on hIL-6 mRNA is reported as “Active”. The “ApoA-1 activity (EC170 <30 μM)” value in the data set with ApoA-I mRNA is “Active”.

`Cc1noc(C)c1-c1ccc(=O)n(Cc2ccc3[nH]ncc3c2)c1` [Example 148, 1-((1H-Indazol-5-yl)methyl)-5-(3,5-dimethylisoxazol-4-yl)pyridin-2(1H)-one]: in data set [1], the “FRET activity (IC50 <30 μM) BRD4(1)” value is reported as “Active”. In addition, the “FRET activity (IC50 <30 μM) BRD2(2)” value in data set [2] is “Active”. In addition, the “c-myc activity (IC50 <30 μM)” value in the data set on c-myc is on record as “Active”. In data set [3], the “Cell Proliferation activity” value was “Active”. The “IL-6 activity (IC50 <30 μM)” value in the data set with hIL-6 mRNA is “Active”. Further, the “ApoA-1 activity (EC170 <30 μM)” value with ApoA-I mRNA was “Active”.

Take `Cc1noc(C)c1-c1ccc(=O)n(Cc2cccc3[nH]ccc23)c1` [Example 149, 1-((1H-Indol-4-yl)methyl)-5-(3,5-dimethylisoxazol-4-yl)pyridin-2(1H)-one]: the “FRET activity (IC50 <30 μM) BRD4(1)” value in data set [1] is “Active”. In addition, in data set [2], the “FRET activity (IC50 <30 μM) BRD2(2)” value is “Active”. Besides, in the data set with c-myc, the “c-myc activity (IC50 <30 μM)” value is “Active”. In data set [3], the “Cell Proliferation activity” value is given as “Active”. Also, in the data set with hIL-6 mRNA, the “IL-6 activity (IC50 <30 μM)” value is given as “Active”. Also, the “ApoA-1 activity (EC170 <30 μM)” value in the data set on ApoA-I mRNA is on record as “Active”.

As to `COc1ccccc1Cn1cc(-c2c(C)noc2C)ccc1=O` [Example 162, 5-(3,5-Dimethylisoxazol-4-yl)-1-(2-methoxybenzyl)pyridin-2(1H)-one], the “FRET activity (IC50 <30 μM) BRD4(1)” value in data set [1] is listed as “Active”. Besides, in data set [2], the “FRET activity (IC50 <30 μM) BRD2(2)” value is on record as “Active”. Further, the “c-myc activity (IC50 <30 μM)” value with c-myc is recorded as “Active”. Moreover, the “Cell Proliferation activity” value in data set [3] is reported as “Active”. Also, the “IL-6 activity (IC50 <30 μM)” value in the data set with hIL-6 mRNA is “Active”. Also, in the data set with ApoA-I mRNA, the “ApoA-1 activity (EC170 <30 μM)” value is on record as “Active”.

For the compound `COc1ccc(-c2cn(Cc3ccccc3)c(=O)c3ccccc23)cc1OC` [Example 166, 2-Benzyl-4-(3,4-dimethoxyphenyl)isoquinolin-1(2H)-one], the melting point fell in the range of 174 to 176 °C. In data set [1], the “FRET activity (IC50 <30 μM) BRD4(1)” value is reported as “Active”. Moreover, the “FRET activity (IC50 <30 μM) BRD2(2)” value in data set [2] is “Not Active”.

Regarding `Cc1noc(C)c1-c1cn(Cc2ccccc2)c(=O)c2cccnc12` [Example 173, 6-Benzyl-8-(3,5-dimethylisoxazol-4-yl)-1,6-naphthyridin-5(6H)-one], the melting point was in the range of 192 to 195 °C. Besides, the “FRET activity (IC50 <30 μM) BRD4(1)” value in data set [1] was “Active”. Moreover, the “FRET activity (IC50 <30 μM) BRD2(2)” value in data set [2] is “Active”.

On to `Cc1noc(C)c1-c1cn(Cc2ccccc2)c(=O)c2ncccc12` [Example 174, 7-Benzyl-5-(3,5-dimethylisoxazol-4-yl)-1,7-naphthyridin-8(7H)-one], for which the melting point lay in the range of 168 to 170 °C. Also, the “FRET activity (IC50 <30 μM) BRD4(1)” value in data set [1] was “Active”. Further, the “FRET activity (IC50 <30 μM) BRD2(2)” value in data set [2] is “Active”.

The compound `Cc1noc(C)c1-c1cn(Cc2ccccc2)c(=O)c2cnccc12` [Example 175, 2-Benzyl-4-(3,5-dimethylisoxazol-4-yl)-2,7-naphthyridin-1(2H)-one] showed a melting point of 174 to 177 °C. Besides, in data set [1], the “FRET activity (IC50 <30 μM) BRD4(1)” value is listed as “Active”. In data set [2], the “FRET activity (IC50 <30 μM) BRD2(2)” value was “Active”.

In the case of `Cc1noc(C)c1-c1cn(Cc2ccccc2)c(=O)c2ccncc12` [Example 176, 2-Benzyl-4-(3,5-dimethylisoxazol-4-yl)-2,6-naphthyridin-1(2H)-one], the melting point is 159 to 161 °C. Further, the “FRET activity (IC50 <30 μM) BRD4(1)” value in data set [1] is “Active”. Also, in data set [2], the “FRET activity (IC50 <30 μM) BRD2(2)” value is given as “Active”.

For the origin of these results see patent US9271978B2 (Zenith Epigenetics Corp., priority 2012, dated 2016).
